Like-named read-outs stand apart in the source and are kept apart here.
How the values were obtained:
[1] = hairless, mouse, 2 mass %, pH 7.4
Method: (§1) A skin specimen extirpated from a hairless mouse was placed in a vertical diffusion cell, with the dermal horny layer side being in the donor side and the dermal basement membrane side being in the receiver side. 16 mL of a phosphate-buffered physiological saline solution (PBS solution) (pH 7.4) was added to the receiver side. The cell was heated in a water bath at 37° C. 30 minutes after starting heating, 1.0 g of a hydrogel, having been heated to 37° C., was applied to the donor side using a needleless syringe. The receiver solution was collected in 1 mL portions at specific time intervals. To the receiver side, the PBS solution was added in 1 mL portions to make up for the collected portions.
(§2) The receiver solution thus collected was subjected to high performance liquid chromatography (HPLC) and the amount of permeated paroxetine was calculated.

[2] = Skin permeability test: effect of promoting transdermal absorption of paroxetine (vertical diffusion cell); assay type: in vitro ADME; conditions: hydrogel with 1 mass % paroxetine and 2 mass % test sample; hairless mouse skin; receiver PBS pH 7.4; 37° C.; n = 5
From the text: As a control, purified water was used as a substitute for the test samples.
Device: Elite LaChrom System (manufactured by Hitachi Ltd.)
Column: YMS-Pack ODS-A 4.6 mm×150 mm (manufactured by YMC Co., Ltd.)
Eluent: phosphate buffer (pH 3.5)/acetonitrile=35/65 (V/V)
Measurement wavelength: 235 nm

[3] = Skin permeability test: effect of promoting transdermal absorption of antipyrine (vertical diffusion cell); conditions: hydrogel with 2 mass % antipyrine and 2 mass % test sample; hairless mouse skin; receiver PBS pH 7.4; 37° C.; n = 5
Method: as §1, §2

Compound: CC1CCC(C(C)C)C(OCCO)C1 (centres unmarked) [CA5, 2-(menthoxy)ethanol]
- Flux of antipyrine (transdermal absorption amount per unit time and unit area) [1]: 224.59 ± 19.56 μg/cm^2/h
- Lagtime of antipyrine (transdermal absorption speed) [1]: 1.36 ± 0.28 h

Compound: CC1CCC(C(C)C)C(O)C1 (centres unmarked) [Sample 1-Menthol, 1-menthol]
- Flux of paroxetine (transdermal absorption amount per unit time and unit area) [2]: 185 ± 31.1 μg/cm^2/h
- Lagtime of paroxetine (transdermal absorption speed) [2]: 3.84 ± 1.60 h
- Flux of antipyrine (transdermal absorption amount per unit time and unit area) [3]: 300.52 ± 34.42 μg/cm^2/h
- Lagtime of antipyrine (transdermal absorption speed) [3]: 0.53 ± 0.02 h

Compound: CC1CCC(C(C)C)C(OCC(C)(O)CO)C1 (centres unmarked) [CA1, 2-methyl-3-(menthoxy)propane-1,2-diol]
- Flux of antipyrine (transdermal absorption amount per unit time and unit area) [1]: 150.71 ± 5.46 μg/cm^2/h
- Lagtime of antipyrine (transdermal absorption speed) [1]: 3.20 ± 0.24 h
